The Kinase Knowledgebase extract (Sharma et al. 2016)

What was measured:
PIK3CG (human) [1] = molecular target: PIK3CG (human) (UniProt P48736); test: Enzyme Assay
PIK3CA (human) [2] = molecular target: PIK3CA (human) (UniProt P42336); test: Enzyme Assay
PIK3CD (Human) [3] = molecular target: PIK3CD (Human) (UniProt O00329); test: Enzyme Assay
PIK3CG (human) [4] = molecular target: PIK3CG (human) (UniProt P48736); test: Cell-Based Assay; conditions: u937
PIK3CA (human) [5] = molecular target: PIK3CA (human) (UniProt P42336); test: Cell-Based Assay; conditions: rat-1
PIK3CD (Human) [6] = molecular target: PIK3CD (Human) (UniProt O00329); test: Cell-Based Assay; conditions: rat-1

Chain of PIK3CD (Human) (O00329 whole entry, looked up): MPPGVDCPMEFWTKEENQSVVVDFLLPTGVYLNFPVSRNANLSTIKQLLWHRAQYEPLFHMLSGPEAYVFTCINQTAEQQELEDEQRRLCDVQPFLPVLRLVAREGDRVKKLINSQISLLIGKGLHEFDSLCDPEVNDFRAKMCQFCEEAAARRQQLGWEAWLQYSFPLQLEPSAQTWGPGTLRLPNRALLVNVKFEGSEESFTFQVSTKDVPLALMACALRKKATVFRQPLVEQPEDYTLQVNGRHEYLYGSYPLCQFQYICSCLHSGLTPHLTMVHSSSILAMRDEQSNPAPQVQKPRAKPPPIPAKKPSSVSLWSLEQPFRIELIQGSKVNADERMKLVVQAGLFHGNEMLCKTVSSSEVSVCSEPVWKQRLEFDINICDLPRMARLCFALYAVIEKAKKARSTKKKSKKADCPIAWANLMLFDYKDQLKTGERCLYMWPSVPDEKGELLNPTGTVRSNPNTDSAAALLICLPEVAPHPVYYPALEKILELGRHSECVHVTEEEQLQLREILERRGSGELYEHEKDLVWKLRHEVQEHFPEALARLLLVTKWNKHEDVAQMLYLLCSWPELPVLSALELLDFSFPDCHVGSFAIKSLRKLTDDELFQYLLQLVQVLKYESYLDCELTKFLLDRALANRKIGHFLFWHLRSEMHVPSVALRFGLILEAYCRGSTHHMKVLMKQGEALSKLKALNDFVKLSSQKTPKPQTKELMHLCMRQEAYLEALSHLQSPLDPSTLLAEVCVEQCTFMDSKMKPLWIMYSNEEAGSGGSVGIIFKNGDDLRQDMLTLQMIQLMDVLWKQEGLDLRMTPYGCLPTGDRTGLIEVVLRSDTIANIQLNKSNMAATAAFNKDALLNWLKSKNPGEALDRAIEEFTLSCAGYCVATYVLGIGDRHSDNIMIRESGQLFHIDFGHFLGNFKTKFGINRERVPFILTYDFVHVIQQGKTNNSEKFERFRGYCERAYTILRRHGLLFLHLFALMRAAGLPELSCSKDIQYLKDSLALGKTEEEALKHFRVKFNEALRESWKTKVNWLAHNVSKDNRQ
Chain of PIK3CG (human) (P48736 whole entry, looked up): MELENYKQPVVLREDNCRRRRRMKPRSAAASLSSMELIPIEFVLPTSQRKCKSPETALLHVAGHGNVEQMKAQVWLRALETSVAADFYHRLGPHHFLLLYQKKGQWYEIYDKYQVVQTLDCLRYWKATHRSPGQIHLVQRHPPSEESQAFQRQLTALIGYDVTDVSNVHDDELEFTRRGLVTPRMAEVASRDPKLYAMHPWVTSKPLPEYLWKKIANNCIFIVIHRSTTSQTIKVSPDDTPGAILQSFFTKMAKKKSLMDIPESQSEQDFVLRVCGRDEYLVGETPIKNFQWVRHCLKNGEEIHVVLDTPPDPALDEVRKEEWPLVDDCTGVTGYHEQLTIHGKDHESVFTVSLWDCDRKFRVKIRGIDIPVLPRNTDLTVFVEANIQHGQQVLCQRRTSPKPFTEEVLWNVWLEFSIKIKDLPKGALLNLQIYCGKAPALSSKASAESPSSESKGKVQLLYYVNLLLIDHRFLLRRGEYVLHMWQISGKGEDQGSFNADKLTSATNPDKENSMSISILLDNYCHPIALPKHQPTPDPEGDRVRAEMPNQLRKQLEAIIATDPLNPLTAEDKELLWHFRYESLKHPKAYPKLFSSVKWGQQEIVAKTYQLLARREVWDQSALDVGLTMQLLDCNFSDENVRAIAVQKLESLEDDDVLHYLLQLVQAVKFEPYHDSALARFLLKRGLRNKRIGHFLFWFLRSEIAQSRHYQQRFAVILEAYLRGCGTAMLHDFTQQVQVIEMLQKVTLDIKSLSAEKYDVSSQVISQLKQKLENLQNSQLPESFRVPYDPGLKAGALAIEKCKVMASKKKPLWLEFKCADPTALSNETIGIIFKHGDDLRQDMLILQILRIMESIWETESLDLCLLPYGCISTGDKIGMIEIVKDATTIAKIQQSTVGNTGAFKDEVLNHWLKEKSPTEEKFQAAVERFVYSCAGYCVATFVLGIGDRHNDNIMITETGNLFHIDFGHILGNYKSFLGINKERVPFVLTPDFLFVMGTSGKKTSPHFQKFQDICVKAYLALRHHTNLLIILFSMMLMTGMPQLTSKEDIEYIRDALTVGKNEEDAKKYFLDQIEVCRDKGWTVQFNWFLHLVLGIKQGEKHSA
Chain of PIK3CA (human) (P42336 whole entry, looked up): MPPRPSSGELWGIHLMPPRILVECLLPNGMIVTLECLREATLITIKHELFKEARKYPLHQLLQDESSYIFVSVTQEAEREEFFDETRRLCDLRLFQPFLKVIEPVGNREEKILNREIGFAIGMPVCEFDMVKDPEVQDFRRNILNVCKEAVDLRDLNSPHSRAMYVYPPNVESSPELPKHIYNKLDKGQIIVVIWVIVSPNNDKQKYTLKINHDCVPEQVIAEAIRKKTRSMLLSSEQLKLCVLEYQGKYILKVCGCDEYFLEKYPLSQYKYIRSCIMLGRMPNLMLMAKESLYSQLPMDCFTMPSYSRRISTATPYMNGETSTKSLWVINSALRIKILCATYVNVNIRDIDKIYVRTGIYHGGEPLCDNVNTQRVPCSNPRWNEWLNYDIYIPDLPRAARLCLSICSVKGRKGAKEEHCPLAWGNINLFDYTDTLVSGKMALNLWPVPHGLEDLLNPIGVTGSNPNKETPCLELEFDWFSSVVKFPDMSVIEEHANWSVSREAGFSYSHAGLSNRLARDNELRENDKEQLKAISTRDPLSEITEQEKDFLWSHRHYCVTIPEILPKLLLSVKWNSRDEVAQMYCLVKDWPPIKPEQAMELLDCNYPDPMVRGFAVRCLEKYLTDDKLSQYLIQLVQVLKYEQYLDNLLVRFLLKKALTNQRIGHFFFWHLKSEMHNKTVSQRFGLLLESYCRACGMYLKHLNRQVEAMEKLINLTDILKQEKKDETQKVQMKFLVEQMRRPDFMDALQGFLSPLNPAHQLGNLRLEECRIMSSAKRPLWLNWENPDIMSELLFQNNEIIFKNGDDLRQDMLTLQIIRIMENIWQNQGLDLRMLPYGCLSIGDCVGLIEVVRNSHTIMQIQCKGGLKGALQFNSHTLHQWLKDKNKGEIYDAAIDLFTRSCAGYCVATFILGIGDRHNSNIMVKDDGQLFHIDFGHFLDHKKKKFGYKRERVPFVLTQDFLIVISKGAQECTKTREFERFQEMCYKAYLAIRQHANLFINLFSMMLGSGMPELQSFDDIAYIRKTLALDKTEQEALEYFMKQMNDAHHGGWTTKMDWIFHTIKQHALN

IC50 (PIK3CG (human) [1]) [nM]	IC50 (PIK3CA (human) [2]) [nM]	IC50 (PIK3CD (Human) [3]) [nM]	IC50 (PIK3CG (human) [4]) [nM]	IC50 (PIK3CA (human) [5]) [nM]	IC50 (PIK3CD (Human) [6]) [nM]	SMILES
1200	5100	7	821	4600	38	CS(=O)(=O)c1cccc2nc([C@@H]3CCCN3c3ncnc(N)c3C#N)n(-c3ccccc3)c(=O)c12
140	2800	12	261	> 10000	62	N#Cc1c(N)ncnc1N1CCC[C@H]1c1nc2cccc(C(F)(F)F)c2c(=O)n1-c1ccccc1
68	3600	< 3	88	5230	33	O=c1c2c(C(F)(F)F)cccc2nc([C@@H]2C[C@H](F)CN2c2ncnc3[nH]cnc23)n1-c1ccccc1
87	1700	48	40	> 10000	110	Nc1nc(N2CCC[C@H]2c2nc3cccc(C(F)(F)F)c3c(=O)n2-c2ccccc2)c2ncsc2n1
990	2800	47	26	8020	27	N#Cc1c(N)ncnc1N1C[C@@H](O)C[C@H]1c1nc2ccc(F)c(Cl)c2c(=O)n1-c1ccccc1
24	1500	8	675	> 10000	77	Nc1nc(N2CCC[C@H]2c2nc3cccc(Cl)c3c(=O)n2-c2cccnc2)c2nc[nH]c2n1
23	2300	11	119	6630	46	Nc1nc(N2CSC[C@H]2c2nc3cccc(Cl)c3c(=O)n2-c2ccccc2)c2nc[nH]c2n1
24	270	14	18	1090	7	Cc1nc(N)nc(N2C[C@@H](O)C[C@H]2c2nc3ccc(F)c(C)c3c(=O)n2-c2ccccc2)c1C#N
27	1000	11	352	5480	43	CO[C@H]1C[C@@H](c2nc3cccc(Cl)c3c(=O)n2-c2ccccc2)N(c2ncnc3[nH]cnc23)C1
650	3000	19	148	> 10000	< 3	N#Cc1c(N)ncnc1N1CCC[C@H]1c1nc2cccc(F)c2c(=O)n1-c1ccccc1
1300	3800	84	163	3860	86	N#Cc1c(N)ncnc1N1C[C@@H](O)C[C@H]1c1nc2cccc(C(F)(F)F)c2c(=O)n1-c1cccnc1
44	2000	< 3	144	3690	14	N#Cc1c(N)ncnc1N1OCC[C@H]1c1nc2cccc(Cl)c2c(=O)n1-c1ccccc1
35	1300	26	53	4200	23	Cc1nc(N)nc(N2C[C@@H](F)C[C@H]2c2nc3cccc(C(F)(F)F)c3c(=O)n2-c2cccnc2)c1C#N
1900	> 10000	53	1890	> 10000	117	CO[C@H]1C[C@@H](c2nc3cccc(C(F)(F)F)c3c(=O)n2N2CCOCC2)N(c2ncnc(N)c2C#N)C1
42	910	14	42	3410	14	Cc1nc(N)nc(N2C[C@@H](F)C[C@H]2c2nc3cccc(C(F)(F)F)c3c(=O)n2-c2cccc(F)c2)c1C#N
52	290	46	35	2370	6	N#Cc1c(N)nc(N)nc1N1CCC[C@H]1c1nc2cccc(C(F)(F)F)c2c(=O)n1-c1ccccc1
17	300	4	148	> 10000	76	CS(=O)(=O)N[C@H]1C[C@@H](c2nc3cccc(Cl)c3c(=O)n2-c2ccccc2)N(c2ncnc3[nH]cnc23)C1
180	540	24	82	3840	27	Cc1nc(N)nc(N2CCC[C@H]2c2nc3cccc(C(F)(F)F)c3c(=O)n2-c2cccnc2)c1C#N
63	4600	42	1820	> 10000	65	Nc1nc(N2CCC[C@H]2c2nc3cccc(Cl)c3c(=O)n2N2CCOCC2)c2nc[nH]c2n1
320	6600	390	113	> 10000	141	N#Cc1cnc(N)nc1N1C[C@@H](O)C[C@H]1c1nc2cccc(C(F)(F)F)c2c(=O)n1-c1ccccc1

IC50 (PIK3CG (human) [1]) [nM]	IC50 (PIK3CA (human) [2]) [nM]	IC50 (PIK3CD (Human) [3]) [nM]	IC50 (PIK3CG (human) [4]) [nM]	IC50 (PIK3CA (human) [5]) [nM]	IC50 (PIK3CD (Human) [6]) [nM]	SMILES
35	1300	4	209	4040	10	CO[C@H]1C[C@@H](c2nc3cccc(Cl)c3c(=O)n2-c2ccccc2)N(c2ncnc(N)c2C#N)C1
86	1000	12	24	6240	9	Cc1nc(N)nc(N2C[C@@H](O)C[C@H]2c2nc3cccc(Cl)c3c(=O)n2-c2cccnc2)c1C#N
240	4500	50	92	8740	56	Cc1nc(N)nc(N2CCC[C@H]2c2nc3cccc(C(F)(F)F)c3c(=O)n2-c2cncc(F)c2)c1C#N
90	1300	18	114	6600	24	Cc1nc(N)nc(N2C[C@@H](O)C[C@H]2c2nc3cccc(F)c3c(=O)n2-c2ccccc2)c1C#N
24	393	< 3	74	1750	7	N#Cc1c(N)ncnc1N1CCC[C@H]1c1nc2cccc(Cl)c2c(=O)n1-c1ccccc1
417	2800	128	473	3230	26	CO[C@H]1C[C@@H](c2nc3cccc(Cl)c3c(=O)n2C2CC2)N(c2ncnc(N)c2C#N)C1
71	790	18	27	1790	15	Cc1nc(N)nc(N2CCC[C@H]2c2nc3cccc(Cl)c3c(=O)n2N2CCOCC2)c1C#N
48	4400	64	76	> 10000	240	Nc1nc(N2C[C@@H](F)C[C@H]2c2nc3cccc(C(F)(F)F)c3c(=O)n2-c2cccnc2)c2nc[nH]c2n1
9	1300	18	45	3300	29	Nc1nc(N2C[C@@H](F)C[C@H]2c2nc3cccc(C(F)(F)F)c3c(=O)n2-c2ccccc2)c2nc[nH]c2n1
37	2500	27	55	5310	89	Nc1nc(N2C[C@@H](O)C[C@H]2c2nc3cccc(C(F)(F)F)c3c(=O)n2-c2ccccc2)c2ncsc2n1
7200	4500	84	> 10000	> 10000	65	CS(=O)(=O)c1c(F)ccc2nc([C@@H]3CCCN3c3ncnc(N)c3C#N)n(-c3ccccc3)c(=O)c12
5200	> 10000	76	382	> 10000	> 10000	COc1cccc2nc([C@@H]3CCCN3c3ncnc(N)c3C#N)n(-c3ccccc3)c(=O)c12
140	450	75	70	4670	45	Cc1nc(N)nc(N2C[C@@H](O)C[C@H]2c2nc3cccc(OC(F)F)c3c(=O)n2-c2ccccc2)c1C#N
27	510	11	38	7540	87	Nc1nc(N2C[C@@H](O)C[C@H]2c2nc3cccc(C(F)(F)F)c3c(=O)n2-c2ccccc2)c2nc[nH]c2n1
< 3	160	< 3	35	601	< 3	Cc1nc(N)nc(N2C[C@@H](O)C[C@H]2c2nc3cccc(C)c3c(=O)n2-c2ccccc2)c1C#N
11	110	4	35	2370	6	Cc1nc(N)nc(N2C[C@@H](O)C[C@H]2c2nc3ccc(F)c(C4CC4)c3c(=O)n2-c2ccccc2)c1C#N
30	565	53	38	1320	6	CO[C@H]1C[C@@H](c2nc3cccc(Cl)c3c(=O)n2-c2ccccc2)N(c2nc(N)nc(C)c2C#N)C1
31	3300	26	31	> 10000	90	Nc1nc(N2C[C@@H](O)C[C@H]2c2nc3cccc(C(F)(F)F)c3c(=O)n2-c2ccccc2)c2nccn2n1
64	330	21	115	2870	9	Cc1nc(N)nc(N2CCC[C@H]2c2nc3cccc(F)c3c(=O)n2-c2ccccc2)c1C#N
